Data on two compounds can be found in patent publication US11484543B2, “Compositions and methods for diagnosing and treating diseases and disorders associated with mutant KCNJ5” (The Rockefeller University, priority 2017, dated 2022).

For one series, the target named is T1, KCNJ5^G151R (Homo sapiens, UniProt P48544, G151R).
T1 construct: expressed in transfected cells
T1 sequence (P48544 1-419 G151R): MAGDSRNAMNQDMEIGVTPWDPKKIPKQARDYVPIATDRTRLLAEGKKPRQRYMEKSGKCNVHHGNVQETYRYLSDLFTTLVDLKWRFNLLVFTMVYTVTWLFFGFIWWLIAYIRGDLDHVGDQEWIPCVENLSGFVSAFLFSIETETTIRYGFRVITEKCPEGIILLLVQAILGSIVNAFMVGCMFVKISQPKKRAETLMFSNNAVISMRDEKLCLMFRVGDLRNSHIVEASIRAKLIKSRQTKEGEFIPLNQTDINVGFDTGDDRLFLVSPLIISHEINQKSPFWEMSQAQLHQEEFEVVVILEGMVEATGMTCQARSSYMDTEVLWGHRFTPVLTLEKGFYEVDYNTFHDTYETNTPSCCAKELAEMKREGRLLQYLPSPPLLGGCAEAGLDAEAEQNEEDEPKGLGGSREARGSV
The series can be described thus: cell-based. Format: cell-based. The method, boiled down: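 Viability is read as cellular ATP by CellTiter-Glo luminescence 72 h later at 37 °C. Uninduced and induced untreated cells set 100% and 0% effect; curves use a 4-parameter logistic fit.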

Series [1] relates to CYP11B2 (aldosterone synthase) expression, H295R cells expressing KCNJ5^G151R. The series can be described thus: Real-time PCR of CYP11B2 in H295R cells transfected with KCNJ5^G151R. It is filed as cell-based, human. To be noted: 5, 20 or 50 μM for 18 h; p=0.0006 at 20 μM. Here is the method:
(§1) H295R cells were cultured in DMEM/F12, HEPES (Gibco) supplemented with 2.5% Ultroser G (Pall Biosepra), 1% ITS+ Premix (Corning) and 1% Penicillin/Streptomycin (Gibco). Plasmids were purified using the Endofree Maxi Kit (Qiagen). […] 3×10^6 cells were transfected with 3 μg pIRES eGFP containing no insert, WT or mutant KCNJ5 using an Amaxa Nucleofector I (program P-20) and the Nucleofector Kit R (Lonza). Cells were allowed to recover briefly in RPMI 1640 medium (Gibco). […] After an additional 18 h, RNA was harvested using the RNeasy Mini Kit (Qiagen) following the manufacturer's instructions. 300 ng RNA were transcribed using the Quantitect Reverse Transcription Kit (Qiagen). Expression levels of CYP11B2 and GAPDH were quantified in triplicates in a 7300 Real-Time PCR System (Applied Biosystems) using the Taqman Gene Expression Master Mix and assays Hs01597732_m1 (CYP11B2) or HS02758991_g1 (GAPDH) (all Applied Biosystems). DDCT values were calculated by normalization of DCT values, using the average DCT of vehicle treated empty vector-transfected cells as a reference.
(§2) This cell line is derived from a human adrenocortical carcinoma and represents a commonly used in vitro model of zona glomerulosa aldosterone production (Wang et al. 2012, Horm. Metab. Res. 44:245-250). […]
(In general: In qPCR the cycle at which signal appears reflects the starting amount.)

In series [2] the test system is CYP11B2 (aldosterone synthase) expression, H295R cells expressing KCNJ5^WT. The series can be described thus: Real-time PCR of CYP11B2 in H295R cells transfected with KCNJ5^WT. It is filed as cell-based, human. The conditions noted are these: 5, 20 or 50 μM for 18 h. The procedure:
as §1, §2

The conditions of series [3]: single dose of 300 mg, healthy adults, cited from earlier work.
Where [4] appears, read: 10-point dilution 20 to 0.0391 μM, N=3, four-parameter fit.

Where two headings read alike, the source gives them in different places.

Take `CC[C@H]1OC(=O)[C@H](C)[C@@H](O[C@H]2C[C@@](C)(OC)[C@@H](O)[C@H](C)O2)[C@H](C)[C@@H](O[C@@H]2O[C@H](C)C[C@H](N(C)C)[C@H]2O)[C@](C)(O)C[C@@H](C)/C(=N\OCOCCOC)[C@H](C)[C@@H](O)[C@]1(C)O` [Roxithromycin, roxithromycin]: the G151R maximum inhibition on KCNJ5^G151R (setting [4]) was 105.92%. At KCNJ5^G151R (setting [4]), this compound had a G151R minimum inhibition of 9.92%. Further, the viability at 10 µM on KCNJ5^G151R (HEK293, 72 h, mean of primary screen and hit pick, read-out: mean % effect) was 107%; on KCNJ5^G151R (HEK293, ATP level 72 h after induction, uninduced = 100%, induced = 0% effect, first of the two runs (primary screen / hit pick), read-out: % effect (1)), 108%; on KCNJ5^G151R (HEK293, ATP level 72 h after induction, uninduced = 100%, induced = 0% effect, second of the two runs (primary screen / hit pick, confirmatory testing), read-out: % effect (2)), 107%. The “rescue of ATP level” value at KCNJ5^G151R (dose-response at 1.1, 3.3 and 10 μM) is “virtually complete rescue of ATP level”. For the same compound, the “inhibition of KCNJ5^MUT (structure-activity statement)” value on KCNJ5^G151R (macrolide series, dilution curves) is reported as “potent effects”. The “expression of CYP11B2” value in series [1] is reported as “inhibited expression of CYP11B2 in a dose-dependent fashion”; in series [2], “virtually no change”. Besides, the maximum serum concentrations in series [3] is 16.4 mg/L; in series [3] (conversion of 16.4 mg/L), about 17 µM.

Regarding “N-demethyl-N-isobutyl-8,9-anhydroerythromycin A 6,9-hemiacetal [PLUX37]”, the “inhibition of KCNJ5^G151R by synthesized macrolide derivatives” value at KCNJ5^G151R (tested as in FIG. 7 (FIGS. 9 and 10)) is recorded as “significant inhibition”.
